Measurements taken from patent US7524860B2, “Antibacterial agents” (Pfizer Inc., priority 2004, dated 2009).
Converted amounts (≈) assume the structure as drawn.

Tested on: Neisseria gonorrhoeae, GC525 (NG-2888)
Assay: in-vitro antibacterial activity, microbroth dilution MIC susceptibility testing
Type: cell-based
Conditions: Neisseria gonorrhoeae, microbroth dilution in gonococcal broth, 20-24 hours at 35 C, lowest concentration preventing visible growth, read-out: MIC
Procedure: The in-vitro antibacterial activity of selected compounds was determined against a stain of Neisseria gonorrhoeae, GC525 (NG-2888), which is described by Rouquette-Loughlin et al, in Journal of Bacteriology, February 2003, p. 1101-1106, at p. 1103. In general, minimum inhibitory concentration (MIC) susceptibility testing followed procedures recommended by the National Committee for Clinical Laboratory Standards (NCCLS^1-2) or followed the descriptions described below:
Neisseria gonorrhoeae strains were grown on Chocolate Agar II plates (BBL—Becton Dickinson Microbiology Systems, Cockeysville, Md.) and incubated at 35° C. in a humidified 5% CO2 incubator (Form a Scientific, Marietta Ohio). For microbroth dilution MIC testing, N. gonorrhoeae were tested in gonococcal broth (GCB):
Gram stains were also utilized. Permanent Stock Culture Collection
Bacterial stock cultures are stored as frozen suspensions at −70 C. N. gonorrhoeae cultures are suspended in inactivated Horse Serum (Colorado Serum Company, Denver, Colo.) containing 7.5% glucose prior to snap freezing in a dry ice/ethanol bath.
Preparation of Standardized Test Inocula and Plate Inoculation
Frozen stock cultures were used as the initial source of organisms for performing microbroth dilution MIC testing. Stock cultures were passed on their respective growth medium at least one growth cycle (18-24 hours) prior to their use. Bacterial culture suspensions were prepared directly from Chocolate Agar II plates into 10 mL cation-adjusted Mueller-Hinton Broth (CAMHB, BBL, # BB215069). Before use, cultures were adjusted to an optical density value of 1.6-2 on a Perkin-Elmer Lambda EZ150 Spectrophotometer (Wellesley, Mass.) set at a wavelength of 600 nm. Random cultures were plated for validation of actual colony counts. The adjusted cultures were diluted 400-fold (0.25 mL inoculum+100 mL GCB) into gonococcal broth producing a starting inoculum of approximately 5×10^5 cfu/mL. These cultures were inoculated into test plates (100 uL/well) using a Biomek® FX workstation (Beckman Coulter Inc., Fullerton, Calif.). The inoculated plates were placed in stacks of no more than 4 and covered with an empty plate. Plates were incubated for 20-24 hours at 35 C in a humidified CO2 incubator.
Test Compound (“Drug”) Preparation
Drug stock solutions (2 mg/mL in DMSO) were prepared on the day of testing. Drugs were weight corrected for assay content where necessary.
Drug Dilution Tray Preparation
Microbroth dilution stock plates were prepared in two dilution series, 64-0.06 ug drug/mL and 1-0.001 ug drug/mL. For the high concentration series, 200 uL of stock solution (2 mg/mL) was added to duplicate rows of a 96-well plate. This was used as the first well in the dilution series. Serial two-fold decremental dilutions were made using a BioMek FX robot (Beckman Coulter Inc., Fullerton, Calif.) with 10 of the remaining 11 wells, each of which contained 100 uL of the appropriate solvent/diluent. Row 12 contained solvent/diluent only and served as the control. For tube one of the low concentration series, 200 uL of a 31.25 ug/mL stock was added to duplicate rows of a 96-well plate. Serial two-fold dilutions were made as described above.
Daughter plates were spotted (3.2 uL/well) from the stock plates listed above using the BioMek FX robot and were inoculated with organism (100 uL/well) as described previously.
After incubation, the degree of growth in each well was read visually with the aid of a Test Reading Mirror (Dynatech Lab 220-16, Dynex Technologies, Chantilly, Va.). 96-well test plates are read in a darkened room with a single light shining from above. The MIC is the lowest concentration of drug that prevents macroscopically visible growth under the conditions of the test. […] If MIC values in duplicate tests differ by 1 well (two-fold), the […] value is reported. If duplicate tests vary by 2 dilutions (four-fold), the middle value is reported.

SMILES | MIC [mg/L]
CCNC(=O)Nc1nc2cc(-c3cccnc3)cc(C(=O)N[C@@H](C)c3ccccc3)n2n1 [Example 42, (S)-2-(3-Ethyl-ureido)-7-pyridin-3-yl-[1,2,4]triazolo[1,5-a]pyridine-5-carboxylic acid(1-phenyl-ethyl)-amide] | 8 (≈ 18.6 µM)
CCNC(=O)Nc1nc2cc(-c3cccnc3)cc(C(=O)NCC(C)(C)C)n2n1 [Example 43, 2-(3-Ethyl-ureido)-7-pyridin-3-yl-[1,2,4]triazolo[1,5-a]pyridine-5-carboxylic acid (2,2-dimethyl-propyl)-amide] | > 64
CCNC(=O)Nc1nc2cc(-c3cccnc3)cc(C(=O)NC3CCOC3)n2n1 (stereo not drawn) [Example 45, 2-(3-Ethyl-ureido)-7-pyridin-3-yl-[1,2,4]triazolo[1,5-a]pyridine-5-carboxylic acid (tetrahydro-furan-3-yl)-amide] | > 64
CCNC(=O)Nc1nc2cc(-c3cccnc3)cc(C(=O)NCCC3CCCN3C)n2n1 (stereo not drawn) [Example 46, 2-(3-Ethyl-ureido)-7-pyridin-3-yl-[1,2,4]triazolo[1,5-a]pyridine-5-carboxylic acid [2-(1-methyl-pyrrolidin-2-yl)-ethyl]-amide] | 1 (≈ 2.29 µM)
CCNC(=O)Nc1nc2cc(-c3cccnc3)cc(C(=O)NCCCN3CCCC3)n2n1 [Example 47, 2-(3-Ethyl-ureido)-7-pyridin-3-yl-[1,2,4]triazolo[1,5-a]pyridine-5-carboxylic acid (3-pyrrolidin-1-yl-propyl)-amide] | 16 (≈ 36.7 µM)
CCNC(=O)Nc1nc2cc(-c3cccnc3)cc(C(=O)N[C@H](C)c3ccccc3)n2n1 [Example 48, (R)-2-(3-Ethyl-ureido)-7-pyridin-3-yl-[1,2,4]triazolo[1,5-a]pyridine-5-carboxylic acid(1-phenyl-ethyl)-amide] | 16 (≈ 37.3 µM)
CCNC(=O)Nc1nc2cc(-c3cccnc3)cc(C(=O)N3CCC(N(CC)CC)C3)n2n1 (stereo not drawn) [Example 49, 1-[5-(3-Diethylamino-pyrrolidine-1-carbonyl)-7-pyridin-3-yl-[1,2,4]triazolo[1,5-a]pyridin-2-yl]-3-ethyl-urea] | > 64
CCNC(=O)Nc1nc2cc(-c3cccnc3)cc(C(=O)Nc3nccs3)n2n1 [Example 50, 2-(3-Ethyl-ureido)-7-pyridin-3-yl-[1,2,4]triazolo[1,5-a]pyridine-5-carboxylic acidthiazol-2-ylamide] | 2 (≈ 4.9 µM)
CCNC(=O)Nc1nc2cc(-c3cccnc3)cc(C(=O)N(C)Cc3nnc(C)o3)n2n1 [Example 51, 2-(3-Ethyl-ureido)-7-pyridin-3-yl-[1,2,4]triazolo[1,5-a]pyridine-5-carboxylic acid methyl-(5-methyl-[1,3,4]oxadiazol-2-ylmethyl)-amide] | 64 (≈ 147 µM)
CCNC(=O)Nc1nc2cc(-c3cccc(C)c3)cc(C(=O)NCC)n2n1 [Example 52, 2-(3-Ethyl-ureido)-7-m-tolyl-[1,2,4]triazolo[1,5-a]pyridine-5-carboxylic acid ethylamide] | 4 (≈ 10.9 µM)
CCNC(=O)Nc1nc2cc(-c3ccc(F)c(C)c3)cc(C(=O)NCC)n2n1 [Example 53, 2-(3-Ethyl-ureido)-7-(4-fluoro-3-methyl-phenyl)-[1,2,4]triazolo[1,5-a]pyridine-5-carboxylic acid ethylamide] | 16 (≈ 41.6 µM)
CCNC(=O)Nc1nc2cc(-c3ccccc3OC)cc(C(=O)NCC)n2n1 [Example 54, 2-(3-Ethyl-ureido)-7-(2-methoxy-phenyl)-[1,2,4]triazolo[1,5-a]pyridine-5-carboxylic acid ethylamide] | > 64
CCNC(=O)Nc1nc2cc(-c3ccc(F)c(F)c3)cc(C(=O)NCC)n2n1 [Example 55, 7-(3,4-Difluoro-phenyl)-2-(3-ethyl-ureido)-[1,2,4]triazolo[1,5-a]pyridine-5-carboxylic acid ethylamide] | 2 (≈ 5.15 µM)
CCNC(=O)Nc1nc2cc(-c3ccc4c(c3)CCO4)cc(C(=O)NCC)n2n1 [Example 57, 7-(2,3-Dihydro-benzofuran-5-yl)-2-(3-ethyl-ureido)-[1,2,4]triazolo[1,5-a]pyridine-5-carboxylic acid ethylamide] | 2 (≈ 5.07 µM)
CCNC(=O)Nc1nc2cc(-c3ccc(C(C)(C)C)cc3)cc(C(=O)NCC)n2n1 [Example 58, 7-(4-tert-Butyl-phenyl)-2-(3-ethyl-ureido)-[1,2,4]triazolo[1,5-a]pyridine-5-carboxylic acid ethylamide] | 2 (≈ 4.9 µM)

The remaining lines, values ahead:

MIC [mg/L] | SMILES
> 16 | CCNC(=O)Nc1nc2cc(-c3cccc(SC)c3)cc(C(=O)NCC)n2n1 [Example 60, 2-(3-Ethyl-ureido)-7-(3-methyl-sulfanyl-phenyl)-[1,2,4]triazolo[1,5-a]pyridine-5-carboxylic acid ethylamide]
2 (≈ 5.07 µM) | CCNC(=O)Nc1nc2cc(-c3ccc(C(C)C)cc3)cc(C(=O)NCC)n2n1 [Example 61, 2-(3-Ethyl-ureido)-7-(4-isopropyl-phenyl)-[1,2,4]triazolo[1,5-a]pyridine-5-carboxylic acid ethylamide]
2 (≈ 5.07 µM) | CCNC(=O)Nc1nc2cc(-c3cccc(C(C)C)c3)cc(C(=O)NCC)n2n1 [Example 62, 2-(3-Ethyl-ureido)-7-(3-isopropyl-phenyl)-[1,2,4]triazolo[1,5-a]pyridine-5-carboxylic acid ethylamide]
8 (≈ 20.8 µM) | CCNC(=O)Nc1nc2cc(-c3ccc(F)cc3C)cc(C(=O)NCC)n2n1 [Example 63, 2-(3-Ethyl-ureido)-7-(4-fluoro-2-methyl-phenyl)-[1,2,4]triazolo[1,5-a]pyridine-5-carboxylic acid ethylamide]
> 64 | CCNC(=O)Nc1nc2cc(-c3ccc(F)cc3F)cc(C(=O)NCC)n2n1 [Example 64, 7-(2,4-Difluoro-phenyl)-2-(3-ethyl-ureido)-[1,2,4]triazolo[1,5-a]pyridine-5-carboxylic acid ethylamide]
32 (≈ 84.8 µM) | CCNC(=O)Nc1nc2cc(-c3ccccc3C#N)cc(C(=O)NCC)n2n1 [Example 65, 7-(2-Cyano-phenyl)-2-(3-ethyl-ureido)-[1,2,4]triazolo[1,5-a]pyridine-5-carboxylic acid ethylamide]
4 (≈ 10.3 µM) | CCNC(=O)Nc1nc2cc(-c3cc(F)ccc3F)cc(C(=O)NCC)n2n1 [Example 66, 7-(2,5-Difluoro-phenyl)-2-(3-ethyl-ureido)-[1,2,4]triazolo[1,5-a]pyridine-5-carboxylic acid ethylamide]
1 (≈ 2.59 µM) | CCNC(=O)Nc1nc2cc(-c3cccc(Cl)c3)cc(C(=O)NCC)n2n1 [Example 67, 7-(3-Chloro-phenyl)-2-(3-ethyl-ureido)-[1,2,4]triazolo[1,5-a]pyridine-5-carboxylic acid ethylamide]
2 (≈ 5.46 µM) | CCNC(=O)Nc1nc2cc(-c3ccc(C)cc3)cc(C(=O)NCC)n2n1 [Example 68, 2-(3-Ethyl-ureido)-7-p-tolyl-[1,2,4]triazolo[1,5-a]pyridine-5-carboxylic acid ethylamide]
8 (≈ 21.6 µM) | CCNC(=O)Nc1nc2cc(-c3ccc(F)cc3)cc(C(=O)NCC)n2n1 [Example 69, 2-(3-Ethyl-ureido)-7-(4-fluoro-phenyl)-[1,2,4]triazolo[1,5-a]pyridine-5-carboxylic acid ethylamide]
1 (≈ 2.7 µM) | CCNC(=O)Nc1nc2cc(-c3cccc(F)c3)cc(C(=O)NCC)n2n1 [Example 70, 2-(3-Ethyl-ureido)-7-(3-fluoro-phenyl)-[1,2,4]triazolo[1,5-a]pyridine-5-carboxylic acid ethylamide]
4 (≈ 11.4 µM) | CCNC(=O)Nc1nc2cc(-c3ccccc3)cc(C(=O)NCC)n2n1 [Example 71, 2-(3-Ethyl-ureido)-7-phenyl-[1,2,4]triazolo[1,5-a]pyridine-5-carboxylic acid ethylamide]
